Experimental data reported in patent US20260315499A1, “2'- {HETEROCYCLYL (ARYL/ALKYL) METHYL} - CANNABIDIOL COMPOUNDS AND PROCESS FOR PREPARATION THEREOF” (COUNCIL OF SCIENTIFIC & INDUSTRIAL RESEARCH, priority 2023, published 2026).

Assay: In vivo corticosterone induced depression model: effect on body weight
Parameters: species or system mouse (male C57)
Settings: 21 days; for Weight (g) ± SD: A1 20 mg/kg oral, fluoxetine 18 mg/kg
Procedure: In vivo efficacy (ameliorates behavioral despair) of A1 in corticosterone induced model of stress (J. Neurochem., 2018 146, 722 734). […] A1 (20 mg/kg, oral) dissolved in normal saline was given for 3 consecutive weeks following corticosteroid stress. The sucrose preference test was employed, tail suspension test, and forced swim test to evaluate behavioral distress. We noticed that A1 can resurrect mice in stressful situations. […]

C=C(C)[C@@H]1CCC(C)=C[C@H]1c1c(O)cc(CCCCC)c(CN2CCOCC2)c1O [A1, 2′-(morpholin-1-ylmethyl)-cannabidiol]
toxicity / weight fluctuations (in words) (20 mg/kg oral): no discernible toxicity | Weight (g) ± SD (with Cort. 35 μg/ml): 36.75 ± 3.88 g | Weight (g) ± SD (without Cort.): 42.88 ± 2.69 g
